Source: the supplement of paper PMC11061612

Columns and labels:
Assay in all cases: Bliss excess, mean over the matrix (fraction); higher = more synergy
[1] = system: CHSA8926 (Chondrosarcoma)
Summary of the method: (§1)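 Bliss excess equals the observed combination effect minus the expected value EA + EB − EA·EB, where EA and EB are the effects of each agent alone. Combination Emax is the second-highest inhibition within the matrix. Inhibition was scaled from CellTiter-Glo 2.0 luminescence, with 0 set by vehicle wells and 1 by blank wells, after 72 hours of two-drug dosing of cells plated in 1536-well plates.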

[2] = system: CW-2 (Colorectal Carcinoma)
Summary of the method: as §1

[3] = system: DAN-G (Pancreatic Carcinoma)
Summary of the method: as §1

[4] = system: DMS-114 (Small Cell Lung Carcinoma)
Summary of the method: as §1

[5] = system: H9 (T-Cell Non-Hodgkin's Lymphoma)
Summary of the method: as §1

[6] = system: HCC1187 (Breast Carcinoma)
Summary of the method: as §1

[7] = system: HCC1419 (Breast Carcinoma)
Summary of the method: as §1

[8] = system: JHH-4 (Hepatocellular Carcinoma)
Summary of the method: as §1

[9] = system: KMS-12-BM (Plasma Cell Myeloma)
Summary of the method: as §1

M059J (Glioblastoma) = system: M059J (Glioblastoma)
Summary of the method: as §1

[10] = system: MOLM-13 (Acute Myeloid Leukemia)
Summary of the method: as §1

[11] = system: NCCIT (Other Solid Carcinomas)
Summary of the method: as §1

[12] = system: NCI-H3122 (Lung Adenocarcinoma)
Summary of the method: as §1

[13] = system: NCI-H526 (Small Cell Lung Carcinoma)
Summary of the method: as §1

RD (Rhabdomyosarcoma) = system: RD (Rhabdomyosarcoma)
Summary of the method: as §1

SJSA-1 (Osteosarcoma) = system: SJSA-1 (Osteosarcoma)
Summary of the method: as §1

[14] = system: SK-GT-2 (Gastric Carcinoma)
Summary of the method: as §1

[15] = system: SNU-398 (Hepatocellular Carcinoma)
Summary of the method: as §1

[16] = system: ST486 (Burkitt's Lymphoma)
Summary of the method: as §1

[17] = system: VMRC-RCZ (Kidney Carcinoma)
Summary of the method: as §1

SMILES	Bliss excess [1]	Bliss excess [2]	Bliss excess [3]	Bliss excess [4]	Bliss excess [5]	Bliss excess [6]	Bliss excess [7]	Bliss excess [8]	Bliss excess [9]	Bliss excess (M059J (Glioblastoma))	Bliss excess [10]	Bliss excess [11]	Bliss excess [12]	Bliss excess [13]	Bliss excess (RD (Rhabdomyosarcoma))	Bliss excess (SJSA-1 (Osteosarcoma))	Bliss excess [14]	Bliss excess [15]	Bliss excess [16]	Bliss excess [17]
COc1nnc2ccc(N3CCC(c4ccc(OCCN5CCN(C)C(=O)[C@H]5C)cc4)CC3)nn12 [AZD5153] + Cn1cnc2c(F)c(Nc3ccc(Br)cc3Cl)c(C(=O)NOCCO)cc21 [Selumetinib] (first compound max 1 µM, 7x7, partner max 10 µM)	-0.0599	0.0215	-0.0368	0.0443	0.0074	-0.0067	0.0238	0.0336	-0.0114	-0.0635	0.0238	-0.0845	-0.0818	-0.0183	0.0333	-0.0377	0.0006	-0.0298	0.031	-0.0486
CCN(CCO)CCCOc1ccc2c(Nc3cc(CC(=O)Nc4cccc(F)c4)[nH]n3)ncnc2c1 [AZD2811] + O=C(c1cc(Cc2n[nH]c(=O)c3ccccc23)ccc1F)N1CCN(C(=O)C2CC2)CC1 [Olaparib] (first compound max 1 µM, 7x7, partner max 10 µM)	0.0124	0.0119	0.0092	-0.0127	-0.0965	-0.0668	-0.0532	-0.0293	0.0456	-0.0213	-0.0094	-0.0195	0.0018	0.0486	0.0106	-0.0232	0.0218	-0.0223	-0.0464	-0.0325
CN(C)CCCOc1ccc(-c2ccc3ncc4c(c3c2)n(C2CCOCC2)c(=O)n4C)cn1 [AZD0156] + C[C@@H]1COCCN1C2=NC(=NC(=C2)C3(CC3)[S@](=N)(=O)C)C4=C5C=CNC5=NC=C4 [AZD6738] (first compound max 1 µM, 7x7, partner max 10 µM)	-0.0328	-0.0131	0.0425	-0.0138	0.0525	0.0161	-0.0295	-0.0317	0.117	0.0092	-0.0334	-0.0174	0.0218	-0.0051	-0.0333	-0.0266	0.0033	-0.0039	0.0016	-0.0479
COc1nnc2ccc(N3CCC(c4ccc(OCCN5CCN(C)C(=O)[C@H]5C)cc4)CC3)nn12 [AZD5153] + Cc1c2c(nn1C)CSCc1cc(n(C)n1)CSc1cc(c3ccccc3c1)OCCCc1c(C(=O)O)n(C)c3c-2c(Cl)ccc13 [AZD5991] (first compound max 1 µM, 7x7, partner max 1 µM)	-0.0166	-0.0629	-0.0163	0.029	-0.0056	0.0079	-0.0411	0.0096	-0.0116	-0.0072	-0.0238	-0.0196	-0.0279	0.03	0.0267	-0.0673	0.0224	-0.0431	-0.0275	-0.022
CC1(C)CCC(CN2CCN(c3ccc(C(=O)NS(=O)(=O)c4ccc(NCC5CCOCC5)c([N+](=O)[O-])c4)c(Oc4cnc5[nH]ccc5c4)c3)CC2)=C(c2ccc(Cl)cc2)C1 [Venetoclax] + CN(C)CCCOc1ccc(-c2ccc3ncc4c(c3c2)n(C2CCOCC2)c(=O)n4C)cn1 [AZD0156] (first compound max 1 µM, 7x7, partner max 1 µM)	-0.0249	0.0285	-0.0268	-0.0436	-0.0035	-0.0071	-0.0156	-0.0078	0.0078	-0.0173	-0.126	0.0086	-0.0656	0.0393	-0.0332	-0.0358	0.005	-0.0081	0.0106	-0.0492
C=CCn1c(=O)c2cnc(Nc3ccc(N4CCN(C)CC4)cc3)nc2n1-c1cccc(C(C)(C)O)n1 [AZD1775] + C[C@@H]1COCCN1C2=NC(=NC(=C2)C3(CC3)[S@](=N)(=O)C)C4=C5C=CNC5=NC=C4 [AZD6738] (first compound max 1 µM, partner max 10 µM)	-0.0268	0.0554	-0.0079	0.0422	0.0607	0.0558	-0.0034	0.0007	0.0418	-0.0206	0.0233	0.0526	0.0165	0.0576	0.0125	0.0047	-0.0189	-0.0067	-0.0044	-0.0639
COc1nnc2ccc(N3CCC(c4ccc(OCCN5CCN(C)C(=O)[C@H]5C)cc4)CC3)nn12 [AZD5153] + CC1(C)CCC(CN2CCN(c3ccc(C(=O)NS(=O)(=O)c4ccc(NCC5CCOCC5)c([N+](=O)[O-])c4)c(Oc4cnc5[nH]ccc5c4)c3)CC2)=C(c2ccc(Cl)cc2)C1 [Venetoclax] (first compound max 1 µM, 7x7, partner max 1 µM)	-0.0287	-0.0642	-0.0437	-0.0732	0.0162	-0.0462	-0.0499	-0.0442	0.0033	-0.0124	0.0179	-0.0245	-0.0372	0.0192	-0.041	-0.0481	-0.028	-0.126	-0.0493	-0.0224
